{"source": "patent US12673038B2", "about": "“Antimycotic methoxyflavone and fluconazole combination for inhibiting cryptococcus” (Karl-Franzens-Universität Graz, priority 2019, dated 2026)", "key": {"[1]": {"test_system": "C. albicans SC5314 biofilms", "experiment": "Biofilm inhibition concentration (BIC), CTB staining", "assay_type": "cell-based", "details": "Candida albicans, C. albicans SC5314 biofilm formation, mean±SEM, read-out: BIC-50"}, "C. albicans SC5314 [2]": {"test_system": "C. albicans SC5314", "experiment": "MIC determination, CLSI protocol M27-A3, OD490", "assay_type": "cell-based, Candida albicans", "details": "C. albicans SC5314, 50 μM 5-MF, untreated control 100%"}, "C. albicans SC5314 [3]": {"test_system": "C. albicans SC5314", "experiment": "C. elegans infection model for C. albicans infection", "assay_type": "in vivo, Caenorhabditis elegans", "details": "C. elegans Δglp-4 Δsek-1 infected with C. albicans", "method": "Survival curves of non-infected (ui ctrl.) and infected (i ctrl.) nematodes treated or not with 5-MF are shown in (A), and the survival of living nematodes on day 5 is shown in (B). Synchronized C. elegans Δglp-4 Δsek-1 larvae were infected at the L4 stage as previously described (Delattin N, et al., Antimicrob Chemother. 69(2014): 1035-1044). 35-50 infected worms were then suspended in 750 μL growth medium (M9 buffer supplemented with 10 mg/L cholesterol, 100 mg/L kanamycin and 75 mg/L ampicillin) in separate wells of a 24-well plate with at least 3 wells for each condition. Worms were treated with 200 μM 5-MF or the corresponding volume of solvent (i ctrl) immediately after infection (single application). Worm survival was monitored daily over the period of five days. Additionally, the survival of non-infected worms (ui ctrl) was monitored as a control. […] In (B), worm survival is expressed as the percentage of viability at day 5 compared to day 0, with data analyzed using one-way ANOVA and corrected for multiple comparison using a Bonferroni post-hoc test. ** p<0.01, **** p<0.0001. […]\nFor efficacy testing of compounds, 750 μL of the worm suspension were transferred into each well of a 24-well plate and substances were added at indicated concentrations (1% DMSO). Nematodes were immediately counted (t0) and survival was monitored over five days post infection by counting living worms. […]"}, "C. glabrata BG2 biofilms": {"test_system": "C. glabrata BG2 biofilms", "experiment": "Biofilm inhibition concentration (BIC), XTT staining", "assay_type": "cell-based, Candida glabrata", "details": "Nakaseomyces glabratus, BG2BIOFILMS, C. glabrata BG2 biofilm formation, mean±SEM, read-out: BIC-50"}, "Candida albicans": {"test_system": "Candida albicans", "details": "according to CN 105 669 625 A; cited from earlier work"}, "S. cerevisiae BY4741": {"test_system": "S. cerevisiae BY4741", "experiment": "ROS accumulation by DHE to ethidium conversion (flow cytometry)", "assay_type": "cell-based, Saccharomyces cerevisiae", "details": "day 3 after treatment", "method": "S. cerevisiae BY4741 cells were grown in SMD minimal media to mid-log phase and then treated with the indicated concentrations of 5-MF; control cells were treated with the same amount of solvent (DMSO). (A) Clonogenicity was assayed by plating 500 cells on YPD agar plates and colony forming units (CFUs) were counted to calculate survival rates. (B) Yeast cells were analyzed for cell death markers via AnnV/PI co-staining using flow cytometry. (C) The accumulation of reactive oxygen species was monitored by dihydrotethidium (DHE) to ethidium (Eth) conversion using flow cytometry. Assays in (A-C) were performed on day 3 after treatment. […] Data was analyzed by one-way ANOVA and corrected for multiple comparison using a Bonferroni post-hoc test. ns: not significant, * p<0.05, *** p<0.001, **** p<0.0001. […] Accumulation of ROS was determined by dihydroethidium (DHE) staining as described for PI staining, using a 100 ng/mL DHE solution (Sigma, Germany) in PBS. After staining cells were sedimented again and resuspended in PBS to avoid dye deposition. For each sample, at least 30,000 cells were analyzed using flow cytometry (LSRII Fortessa, BD; Ex: 488 nm, Em: 585 nm)."}}, "data": [{"smiles": "COc1cccc2oc(-c3ccccc3)cc(=O)c12", "note": "[5-MF, 5-methoxyflavone]", "values": [{"measurement": "IC50", "setting": "[1]", "value": "216 ± 26.6", "unit": "µM"}, {"measurement": "growth of planktonic cells compared to untreated cells", "setting": "C. albicans SC5314 [2]", "value": "about 60%"}, {"measurement": "worms alive at day 5 post infection", "setting": "C. albicans SC5314 [3]; 200 μM 5-MF single application, infected control 20.6%", "value": 42.9, "unit": "%"}, {"measurement": "nematode survival over 5 days post infection", "setting": "C. albicans SC5314 [3]; compared to infected control", "value": "prolonged protection"}, {"measurement": "IC50", "setting": "C. glabrata BG2 biofilms", "value": "224 ± 15.6", "unit": "µM"}, {"measurement": "synergistic antifungal effect with fluconazole", "setting": "Candida albicans", "value": "does not show such synergistic effect"}, {"measurement": "accumulation of reactive oxygen species (DHE to Eth conversion)", "setting": "S. cerevisiae BY4741", "value": "causes accumulation of reactive oxygen species"}]}]}
